Numbering of substitutions follows the chain as printed.
Experiments:
Test in all cases: substrate-stimulated ATPase assay (colorimetric Pi release)
Format in all cases: biochemical
Conditions in all cases: 5 μM C22:0-CoA, 2 mM ATP, 2 mM MgCl2, LMNG + CHS, pH 7.5, 37 °C
chABCD1 (chimeric ABCD1) [1] = target: T1, chABCD1 (chimeric ABCD1) (Homo sapiens, UniProt P33897, G343V)
T1 construct: single polypeptide: N-terminal FLAG tag, PMP-4 residues 1-65 replacing human ABCD1 residues 1-63, then human ABCD1 64-745; HEK293F; homodimer; LMNG/CHS for assays, digitonin for cryo-EM; with PMP-4 (peroxisomal membrane protein related, ABCD1 homolog, Caenorhabditis elegans; N-terminal segment fused to the target chain)
T1 sequence (P33897 64-745 G343V): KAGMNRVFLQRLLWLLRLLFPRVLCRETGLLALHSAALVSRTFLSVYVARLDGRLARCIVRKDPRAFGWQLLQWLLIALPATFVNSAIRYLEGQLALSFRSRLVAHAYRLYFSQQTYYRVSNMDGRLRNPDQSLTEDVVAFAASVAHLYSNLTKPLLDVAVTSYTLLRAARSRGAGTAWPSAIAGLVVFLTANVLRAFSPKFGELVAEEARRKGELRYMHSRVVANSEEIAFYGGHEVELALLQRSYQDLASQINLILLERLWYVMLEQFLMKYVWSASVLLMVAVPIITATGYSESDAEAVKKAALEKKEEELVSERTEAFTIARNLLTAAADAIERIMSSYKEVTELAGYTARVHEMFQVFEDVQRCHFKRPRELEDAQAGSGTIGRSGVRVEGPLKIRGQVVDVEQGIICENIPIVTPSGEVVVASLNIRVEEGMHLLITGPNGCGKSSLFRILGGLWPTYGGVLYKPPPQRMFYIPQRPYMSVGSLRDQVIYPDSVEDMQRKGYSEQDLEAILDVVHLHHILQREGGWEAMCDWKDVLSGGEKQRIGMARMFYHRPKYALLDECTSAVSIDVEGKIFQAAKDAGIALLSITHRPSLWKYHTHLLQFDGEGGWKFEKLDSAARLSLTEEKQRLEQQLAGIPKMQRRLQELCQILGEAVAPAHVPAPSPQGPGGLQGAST

chABCD1 (chimeric ABCD1) [2] = target: T2, chABCD1 (chimeric ABCD1) (Homo sapiens, UniProt P33897, Y337F)
T2 construct: single polypeptide: N-terminal FLAG tag, PMP-4 residues 1-65 replacing human ABCD1 residues 1-63, then human ABCD1 64-745; HEK293F; homodimer; LMNG/CHS for assays, digitonin for cryo-EM; with PMP-4 (peroxisomal membrane protein related, ABCD1 homolog, Caenorhabditis elegans; N-terminal segment fused to the target chain)
T2 sequence (P33897 64-745 Y337F): T1 sequence (P33897 64-745 G343V) with Y274F, V280G

chABCD1 (chimeric ABCD1) [3] = target: T3, chABCD1 (chimeric ABCD1) (Homo sapiens, UniProt P33897, K336A)
T3 construct: single polypeptide: N-terminal FLAG tag, PMP-4 residues 1-65 replacing human ABCD1 residues 1-63, then human ABCD1 64-745; HEK293F; homodimer; LMNG/CHS for assays, digitonin for cryo-EM; with PMP-4 (peroxisomal membrane protein related, ABCD1 homolog, Caenorhabditis elegans; N-terminal segment fused to the target chain)
T3 sequence (P33897 64-745 K336A): T1 sequence (P33897 64-745 G343V) with K273A, V280G

chABCD1 (chimeric ABCD1) [4] = target: T4, chABCD1 (chimeric ABCD1) (Homo sapiens, UniProt P33897, K217A)
T4 construct: single polypeptide: N-terminal FLAG tag, PMP-4 residues 1-65 replacing human ABCD1 residues 1-63, then human ABCD1 64-745; HEK293F; homodimer; LMNG/CHS for assays, digitonin for cryo-EM; with PMP-4 (peroxisomal membrane protein related, ABCD1 homolog, Caenorhabditis elegans; N-terminal segment fused to the target chain)
T4 sequence (P33897 64-745 K217A): T1 sequence (P33897 64-745 G343V) with K154A, V280G

CCCCCCCCCCCCCCCCCCCCCC(=O)SCCNC(=O)CCNC(=O)[C@H](O)C(C)(C)COP(=O)(O)OP(=O)(O)OC[C@H]1O[C@@H](n2cnc3c(N)ncnc32)[C@H](O)[C@@H]1OP(=O)(O)O [C22:0-CoA]
relative ATPase activity (chABCD1 (chimeric ABCD1) [1]): displayed significantly decreased substrate-simulated ATPase activity, compared to the wild-type | relative ATPase activity (chABCD1 (chimeric ABCD1) [2]): displayed significantly decreased substrate-simulated ATPase activity, compared to the wild-type | relative ATPase activity (chABCD1 (chimeric ABCD1) [3]): displayed significantly decreased substrate-simulated ATPase activity, compared to the wild-type | relative ATPase activity (chABCD1 (chimeric ABCD1) [4]): displayed significantly decreased substrate-simulated ATPase activity, compared to the wild-type

Source: article PMC9177597, “Structural basis of substrate recognition and translocation by human very long-chain fatty acid transporter ABCD1” (Nature Communications, 2022)
